The results in this text go back to patent US20080096974A2, “Polyamine-Metal Chelator Conjugates” (University of Florida Research Foundation, Inc., priority 2003, published 2008).

Series [1] has as its system Murine L1210 leukemia cells. Description: L1210 cell growth inhibition (IC50). Type of series: cell-based. As for the experimental part:
Murine L1210 leukemia cells were maintained in logarithmic growth as a suspension culture in RPMI-1640 medium (Gibco, Grand Island, N.Y.) containing 10% fetal bovine serum (Gibco), 2% HEPES-MOPS buffer, 1 mM L-glutamine (Gibco), and 1 mM aminoguanidine at 37° C. in a water-jacketed 5% CO2 incubator.
Cells were grown in 25 cm^2 tissue culture flasks in a total volume of 10 mL. Cultures were treated during logarithmic growth (0.5−1.0×10^5 cells/mL) with the compounds of interest, reseeded, and incubated as described in Bergeron, R. J., Müller, R., Bussenius, J., McManis, J. S., Merriman, R. L., Smith, R. E., Yao, H., Weimar, W. R., “Synthesis and Evaluation of Hydroxylated Polyamine Analogues as Antiproliferatives,” J. Med. Chem 43: 224-235 (2000). Cell counting and calculation of percent of control growth were also carried out as described in Bergeron, et al. The IC50 is defined as the concentration of compound necessary to reduce cell growth to 50% of control growth after defined intervals of exposure.

For another series, the system named is polyamine transporter. Description: Competition with [3H]SPD for uptake into L1210 cells (polyamine transporter, Ki). Type of series: cell-based, murine. As to conditions: for Ki: L1210 cell suspensions, read-out: Ki, competition with [3H]SPD for the polyamine transport apparatus. An excerpt:
The compounds of interest were studied for their ability to compete with [^3H]SPD for uptake into L1210 leukemia cell suspensions in vitro as described in Bergeron, R. J., Hawthorne, T. R., Vinson, J. R. T., Beck, D. L., Jr., Ingeno, M. J., “Role of the Methylene Backbone in the Antiproliferative Activity of Polyamine Analogues on L1210 Cells,” Cancer Res. 49: 2959-2964 (1989); Bergeron, R. J., McManis, J. S., Liu, C. Z., Feng, Y., Weimar, W. R., Luchetta, G. R., Wu, Q., Ortiz-Ocasio, J., Vinson, J. R. T., Kramer, D., Porter, C., “Antiproliferative Properties of Polyamine Analogues: A Structure-Activity Study,” J. Med. Chem. 37: 3464-3476 (1994); and Bergeron, R. J., Weimar, W. R., Wu, Q., Feng, Y., McManis, J. S., “Polyamine Analogue Regulation of NMDA MK-801 Binding: A Structure-Activity Study,” J. Med. Chem. 39: 5257-5266 (1996). Briefly, cell suspensions were incubated in 1 mL of culture medium containing radiolabeled SPD alone or radiolabeled SPD in the presence of graduated concentrations of a chelator or derivative. At the end of the incubation period, the tubes were centrifuged; the pellet was washed, digested, and neutralized prior to scintillation counting. Lineweaver-Burk plots indicated a simple competitive inhibition with respect to SPD.
The molecules of interest were studied for their ability to compete with [^3H]SPD for uptake into L1210 leukemia cell suspensions in vitro. Briefly, cell suspensions were incubated in 1 mL of culture medium containing radiolabeled SPD alone or radiolabeled SPD in the presence of graduated concentrations of chelator or conjugate. At the end of the incubation period, the tubes were centrifuged; the pellet was washed, digested, and neutralized prior to scintillation counting. Lineweaver-Burk plots indicated simple competitive inhibition with respect to SPD.

Series [2] has as its system polyamine pools in L1210 cells. Description: Effect on native polyamine pools in L1210 cells (HPLC). Type of series: cell-based, murine. The following applies: for activity at 0.2 µM: L1210.
Experimental: At the end of the treatment period, cell suspensions were sampled, washed three times in ice-cold, incomplete medium, and pelleted for extraction using 0.6 N perchloric acid, then freeze-fractured in liquid nitrogen/hot water three times. Each supernatant was frozen at −20° C. until analysis of polyamine content by HPLC. […] The buffer consisted of potassium phosphate (10 mM) and EDTA (2 mM), pH 2.9.
For series [3], the system named is Ornithine decarboxylase (ODC). Description: ODC activity in treated L1210 cells. Type of series: cell-based, murine. As for the experimental part:
(§1) Ornithine decarboxylase (ODC) and Adenosylmethionine decarboxylase (AdoMet DC) activities were determined according to the procedures of Seely, J. E., Pegg, A. E., “Ornithine Decarboxylase (Mouse Kidney),” Methods Enzymol. 94: 158-161 (1983) and Pegg, A. E., Pösö, H., “S-Adenosylmethionine Decarboxylase (Rat Liver),” Methods Enzymol. 94: 234-239 (1983), respectively, on the basis of quantitation of ^14CO2 released from [^14C]carboxyl-labeled L-ornithine or S-adenosyl-L-methionine. Included in each assay were untreated L210 cells as negative controls as well as cells treated with DEHSPM, a drug having a known reproducible effect on each enzyme, as positive controls.

The subject of series [4] is Adenosylmethionine decarboxylase (AdoMet DC). Nature of the series: AdoMetDC activity in treated L1210 cells. Type of series: cell-based, murine. The procedure:
as §1

Series [5] relates to Spermidine/spermine N^1-acetyl transferase (SSAT). Description: SSAT activity in treated L1210 cells. Type of series: cell-based, murine. An excerpt:
Spermidine/spermine N^1-acetyl transferase (SSAT) activity was based on quantitation of [^14C]-N^1-acetylspermidine formed by acetylation of SPD with [^14C]-acetyl coenzyme A according to the method of Libby, P. R., Bergeron, R. J., Porter, C. W., “Structure-Function Correlations of Polyamine Analog-Induced Increases in Spermidine/Spermine Acetyltransferase Activity,” Biochem. Pharmacol. 38: 1435-1442 (1989). Cells treated with DENSPM were positive controls.

The test system of another series is L1210 leukemia cells. Description: Intracellular concentration / accumulation of analogue in L1210 cells (HPLC). As to conditions: for intracellular concentration over extracellular treatment concentration: 0.2 μM extracellular.
Series [6] deals with chelator-promoted iron excretion. Nature of the series: Iron clearance in the bile duct-cannulated rat. Type of series: in vivo. The following applies: for iron-clearing efficiency: bile duct-cannulated rat. The procedure: In this model, chelator-promoted iron excretion is measured in both the bile and the urine. Furthermore, because the method allows for collection of multiple bile samples, the kinetics of iron excretion can be determined. In each instance, the drugs were given subcutaneously. L1 and its SPM conjugate (4 and 5) were administered at a dose of 450 μmol/kg and (S)-4′-(HO)-DADFT (8) and its NSPD conjugates (9 and 10) were administered at a dose of 300 μmol/kg, i.e., all at equivalent iron-binding capacity.

Setting [7] is: Mus musculus, 48 h exposure, read-out: IC50, 48 h.
Setting [8] is: Mus musculus, 96 h exposure, read-out: IC50, 96 h.
The mark [9] stands for this setting: L1210 cells, treatment concentration 100 μM.
The mark [10] stands for this setting: rat, 450 μmol/kg subcutaneously.
Where [11] appears, read: rat, 300 μmol/kg subcutaneously.

Each structure is given as a SMILES string. Structures can show the parent of a compound that is named as a salt. Where two headings read alike, the source gives them in different places.

Regarding `Cc1c(O)c(=O)ccn1CCCNCCCCNCCCN` (as salt: hydrochloride) [Compound 3, 1-(12-Amino-4,9-diazadodecyl)-2-methyl-3-hydroxy-4(1H)-pyridinone Tetrahydrochloride], the melting point fell in the range of 216 to 218 °C.

With `CC(=O)NCCCNCCCCNCCCN` [AcSPM, N^1-Acetylspermine], the concentration for half-maximal inhibition (IC50) in [1] (setting [7]) is above 100 µM. Besides, in [1] (setting [8]), the IC50 was above 100 µM. In addition, in the series on polyamine transporter, the Ki was found to be 10 µM. In addition, in [2] (setting [9]), the “putrescine, percent of control” value is recorded as “substantial effect”; the “spermidine, percent of control” value is given as “slight decrease”; the “spermine, percent of control” value is given as “increased”. The “ODC activity, % of control” value in [3] is on record as 25±11 % of control. In addition, in [4], the “AdoMetDC activity, % of control” value is recorded as 86±11 % of control. Moreover, the “SSAT activity, % of control” value in [5] was 180±11 % of control. Also, in the series on L1210 leukemia cells (treatment concentration 100 μM), the “intracellular concentration (analogue accumulation)” value is recorded as 1.62 mM.

`Cc1c(O)c(=O)ccn1CCCNCCCCNCCCN` [Compound 3, 1-(12-Amino-4,9-diazadodecyl)-2-methyl-3-hydroxy-4(1H)-pyridinone Tetrahydrochloride]: the IC50 in series [1] (setting [7]) and in series [1] (setting [8]) was 0.2 µM each time. Also, the activity at 0.2 µM was 33% in series [2] (Mus musculus, read-out: putrescine, percent of control); 64% in series [2] (Mus musculus, read-out: spermidine, percent of control); 139% in [2] (Mus musculus, read-out: spermine, percent of control). The “ODC activity, % of control” value in [3] is 20±4 % of control. Further, the “AdoMetDC activity, % of control” value in series [4] was 77±11 % of control. Further, in series [5], the “SSAT activity, % of control” value is 275±6 % of control. The compound also had an iron-clearing efficiency in series [6] (450 μmol/kg subcutaneously) of 1.8±0.9%. Also, the “share of excreted iron in the bile” value in series [6] (setting [10]) came to 53%. In [6] (setting [10]), the “share of excreted iron in the urine” value was found to be 47%. Moreover, the “intracellular concentration relative to that attained by parent ligand L1” value in the series with L1210 leukemia cells is given as “several hundred times higher”. The “intracellular concentration over extracellular treatment concentration” value with L1210 leukemia cells is listed as “more than 1900 fold”; in the series on L1210 leukemia cells (listed as 1-(12-amino-4,9-diazadodecyl)-2-methyl-3-hydroxy-4-(1H)-pyridinone) it was 1900 fold. Besides, the intracellular level in the series on L1210 leukemia cells (extracellular 0.2 μM) came out at 390 µM. Besides, in the series with L1210 leukemia cells (treatment concentration 0.2 μM), the “intracellular concentration (analogue accumulation)” value is recorded as 0.39 mM.

On to `COC(=O)c1ccc(C(=O)NCCCNCCCCN)cc1` [Compound 6, N^1-terephthaloylspermidine methyl ester], for which the inhibitory constant (Ki) in the series with polyamine transporter worked out at 3.1 µM.

For the compound `NCCCCNCCCNC(=O)c1ccc(C(=O)O)cc1` [Compound 7, N^1-terephthaloylspermidine], the Ki in the series on polyamine transporter is 27 µM. Further, the “fold increase of Ki of the free acid over the corresponding ester” value in the series with polyamine transporter (L1210 cells) is reported as 9 fold. Moreover, the intracellular level in the series on L1210 leukemia cells (extracellular 100 μM) was below 70 µM.

As for `C[C@]1(C(=O)O)CSC(c2ccc(O)cc2O)=N1` [Compound 8, 2-(2,4-dihydroxyphenyl)-4-(S)-methylthiazoline-4-carboxylic acid], the IC50 was found to be 19 µM in series [1] (setting [7]) and 20 µM in [1] (setting [8]). In addition, in [6] (300 μmol/kg subcutaneously), the iron-clearing efficiency is on record as 1.1±0.6%. Moreover, in the series on L1210 leukemia cells (extracellular 100 μM), the intracellular level was at most 50 µM.

With `CCOC(=O)[C@@]1(C)CSC(c2ccc(OCCCCNCCCNCCCN)cc2O)=N1` [Compound 9], the IC50 in [1] (setting [7]) and in [1] (setting [8]) was 1.5 µM throughout. For the same compound, the Ki in the series on polyamine transporter came out at 5.7 µM. Also, in [6] (300 μmol/kg subcutaneously), the iron-clearing efficiency came to 13.6±3.3%. The “biliary ferrokinetics (in words)” value in series [6] (setting [11]) is on record as “protracted biliary iron clearance”. Besides, the intracellular level in the series on L1210 leukemia cells (extracellular 100 μM) was found to be 947 ± 110 µM.

For the compound `C[C@]1(C(=O)O)CSC(c2ccc(OCCCCNCCCNCCCN)cc2O)=N1.Cl.Cl.Cl` [Compound 10, (S)-4,5-dihydro-2-[2-hydroxy-4-(12-amino-5,9-diazadodecyloxy)phenyl]-4-methyl-4-thiazolecarboxylic acid trihydrochloride], the half-maximal inhibitory concentration (IC50) in [1] (setting [7]) and in series [1] (setting [8]) was 40 µM throughout. In the series with polyamine transporter, the Ki turned out to be 73 µM. The “biliary ferrokinetics (in words)” value in series [6] (setting [11]) was “protracted biliary iron clearance”. The “drug species found in tissues of dosed animals” value in series [6] (rat, subcutaneous) is on record as “contained largely free acid”. Besides, the intracellular level entry with L1210 leukemia cells (extracellular 100 μM) was “about 70 μM”.

Take `Cc1c(O)c(=O)ccn1C` [Compound L1, 1,2-Dimethyl-3-hydroxypyridin-4-one]: the IC50 in [1] (setting [7]) is 46 µM. For the same compound, the IC50 in series [1] (setting [8]) amounted to 55 µM. For the same compound, in [2] (L1210 cells, treatment 50 μM), the “putrescine, percent of control” value is listed as “remained close to control levels” and the “spermidine, percent of control” value is recorded as “remained close to control levels”. Moreover, the activity at 50 µM in series [2] (Mus musculus, L1210 cells, treatment 50 μM, read-out: spermine, percent of control) amounted to 127%. Besides, the “ODC activity, % of control” value in series [3] is recorded as 114±5 % of control. The “AdoMetDC activity, % of control” value in series [4] is reported as 120±4 % of control. Also, the “SSAT activity, % of control” value in series [5] is on record as 108±58 % of control. This compound returned an iron-clearing efficiency in [6] (450 μmol/kg subcutaneously) of 2.2±0.9%. Further, in [6] (setting [10]), the “share of excreted iron in the bile” value is 74% and the “share of excreted iron in the urine” value is 26%. The intracellular level in the series on L1210 leukemia cells (extracellular 50 μM) worked out at 1 µM.

With `CC(=O)N(O)CCCCCNC(=O)CCC(=O)N(O)CCCCCNC(=O)CCC(=O)N(O)CCCCCN` [DFO], the IC50 turned out to be 7 µM in series [1] (setting [7]) and 6 µM in series [1] (setting [8]).

With `FC(F)(F)CNCCCNCCCCNCCCNCC(F)(F)F` [FDESPM], in series [1] (exposure time not given, read-out: IC50), the half-maximal inhibitory concentration (IC50) is above 100 µM. Also, the “competition for / uptake by the polyamine transporter (in words)” value with polyamine transporter (L1210 cells) is on record as “poor Ki”. In the series on L1210 leukemia cells (extracellular 100 μM), the intracellular level is below 20 µM.

For `CCNCCCNCCCCNCCCN` [MESPM, N^1-ethylspermine], the “intracellular concentration (analogue accumulation)” value with L1210 leukemia cells (treatment concentration 100 μM) stood at 1.24 mM.
